Numbers after ± are expanded uncertainties.
Assay: mn = molality of the nth substance listed, in mol/kg
Conditions: 101 kPa, Liquid, Alternating current cell with electrodes

[F-].[K+] [potassium fluoride] + O
electrical conductivity [S/m]
Conditions	278.15 K	283.15 K	298.15 K	308.15 K	318.15 K	343.15 K	363.15 K
m1 = 0.000325	0.002576 ± 1e-05	0.002933 ± 1.2e-05	0.004125 ± 1.7e-05	0.005036 ± 2e-05	0.005965 ± 2.4e-05	0.008448 ± 3.4e-05	0.01046 ± 4e-05
m1 = 0.00109	0.008262 ± 3.3e-05	0.009509 ± 3.8e-05	0.01357 ± 5e-05	0.01642 ± 7e-05	0.01929 ± 8e-05	0.02734 ± 0.00011	0.03426 ± 0.00014
m1 = 0.035	0.2417 ± 0.001	0.2829 ± 0.0011	0.3939 ± 0.0016	0.4778 ± 0.0019	0.5576 ± 0.0022	0.7954 ± 0.0032	0.9964 ± 0.004
m1 = 0.11	0.7375 ± 0.003	0.8455 ± 0.0034	1.195 ± 0.0048	1.445 ± 0.0058	1.692 ± 0.0068	2.409 ± 0.0096	3.004 ± 0.012
m1 = 0.52	3.023 ± 0.012	3.435 ± 0.014	4.804 ± 0.019	5.771 ± 0.023	6.801 ± 0.027	9.683 ± 0.039	11.86 ± 0.047
m1 = 0.99	5.272 ± 0.021	6.034 ± 0.024	8.275 ± 0.033	9.907 ± 0.04	11.75 ± 0.047	16.85 ± 0.067	20.13 ± 0.081

[Cl][Fe][Cl] [ferrous chloride] + O
electrical conductivity [S/m]
Conditions	278.1 K	283.1 K	298.15 K	308.15 K	318.15 K	343.15 K	363.15 K
m1 = 9e-05	0.3365 ± 0.0013	0.3724 ± 0.0015	0.4835 ± 0.0019	0.5486 ± 0.0022	0.6142 ± 0.0025	0.7702 ± 0.0031	0.8954 ± 0.0036
m1 = 0.000726	0.3437 ± 0.0014	0.3802 ± 0.0015	0.494 ± 0.002	0.5646 ± 0.0023	0.635 ± 0.0025	0.8025 ± 0.0032	0.9282 ± 0.0037
m1 = 0.00908	0.4397 ± 0.0018	0.4997 ± 0.002	0.6568 ± 0.0026	0.7661 ± 0.0031	0.8715 ± 0.0035	1.148 ± 0.0046	1.354 ± 0.0054
m1 = 0.1169	1.6 ± 0.0064	1.807 ± 0.0072	2.494 ± 0.01	3.003 ± 0.012	3.516 ± 0.014	4.889 ± 0.02	5.966 ± 0.024

Cl.N [ammonium chloride (NH4Cl)] + O
electrical conductivity [S/m]
Conditions	278.15 K	283.15 K	298.15 K	308.15 K	318.15 K	343.15 K	363.15 K
m1 = 0.000977	0.008892 ± 3.6e-05	0.01017 ± 4e-05	0.01441 ± 6e-05	0.01738 ± 7e-05	0.02024 ± 8e-05	0.0287 ± 0.0001	0.03591 ± 0.00014
m1 = 0.00965	0.0856 ± 0.0003	0.09786 ± 0.00039	0.1381 ± 0.0006	0.1671 ± 0.0007	0.1938 ± 0.0008	0.2731 ± 0.0011	0.3363 ± 0.0013
m1 = 0.09765	0.7999 ± 0.0032	0.9148 ± 0.0037	1.276 ± 0.0051	1.545 ± 0.0062	1.801 ± 0.0072	2.535 ± 0.01	3.142 ± 0.013
m1 = 0.4735	3.542 ± 0.014	4.027 ± 0.016	5.525 ± 0.022	6.577 ± 0.026	7.691 ± 0.031	10.75 ± 0.043	13.26 ± 0.053
m1 = 1.034	7.301 ± 0.029	8.293 ± 0.033	11.12 ± 0.044	13.13 ± 0.052	15.36 ± 0.061	21.55 ± 0.086	25.35 ± 0.1

[Cl-].[K+] [potassium chloride] + O
electrical conductivity [S/m]
Conditions	278.15 K	283.15 K	298.15 K	308.15 K	318.15 K	343.15 K	363.15 K
m1 = 0.0001	0.0009464 ± 3.8e-06	0.001074 ± 4e-06	0.001487 ± 6e-06	0.001786 ± 7e-06	0.002105 ± 8e-06	0.002969 ± 1.2e-05	0.003716 ± 1.5e-05
m1 = 0.001	0.009198 ± 3.7e-05	0.0105 ± 0.0001	0.01471 ± 6e-05	0.01773 ± 7e-05	0.0207 ± 0.0001	0.02897 ± 0.00012	0.03587 ± 0.00014
m1 = 0.01	0.0891 ± 0.0004	0.1014 ± 0.0004	0.1408 ± 0.0006	0.1688 ± 0.0007	0.1977 ± 0.0008	0.2761 ± 0.0011	0.3426 ± 0.0014
m1 = 0.1	0.8184 ± 0.0033	0.9292 ± 0.0037	1.283 ± 0.0051	1.532 ± 0.0061	1.788 ± 0.0072	2.471 ± 0.0099	3.086 ± 0.012
m1 = 0.5	3.875 ± 0.015	4.375 ± 0.018	5.92 ± 0.024	6.981 ± 0.028	8.107 ± 0.032	11.23 ± 0.045	13.48 ± 0.054
m1 = 1	7.203 ± 0.029	8.084 ± 0.032	10.86 ± 0.043	12.8 ± 0.051	14.77 ± 0.059	20.25 ± 0.081	24.58 ± 0.098

[Cl-].[Na+] [sodium chloride] + O
electrical conductivity [S/m]
Conditions	278.15 K	283.15 K	298.15 K	308.15 K	318.15 K	343.15 K	363.15 K
m1 = 0.000104	0.0008271 ± 3.3e-06	0.0009431 ± 3.8e-06	0.001295 ± 5e-06	0.00161 ± 6e-06	0.001893 ± 8e-06	0.002693 ± 1.1e-05	0.003358 ± 1.3e-05
m1 = 0.00099	0.007531 ± 3e-05	0.008619 ± 3.4e-05	0.01224 ± 5e-05	0.01478 ± 6e-05	0.01747 ± 7e-05	0.02497 ± 0.0001	0.03126 ± 0.00013
m1 = 0.01	0.07349 ± 0.00029	0.08395 ± 0.00034	0.1185 ± 0.0005	0.1425 ± 0.0006	0.1694 ± 0.0007	0.2418 ± 0.001	0.3029 ± 0.0012
m1 = 0.1	0.6588 ± 0.0026	0.7505 ± 0.003	1.06 ± 0.0042	1.277 ± 0.0051	1.505 ± 0.006	2.148 ± 0.0086	2.691 ± 0.011
m1 = 0.5	2.948 ± 0.012	3.348 ± 0.013	4.652 ± 0.019	5.625 ± 0.022	6.624 ± 0.026	9.35 ± 0.037	11.68 ± 0.047
m1 = 1	5.444 ± 0.022	6.123 ± 0.025	8.43 ± 0.034	10.19 ± 0.041	11.94 ± 0.048	16.8 ± 0.067	20.94 ± 0.084
